Test results from patent US9688637B2, “3-amidobenzamides and uses thereof for increasing cellular levels of A3G and other A3 family members” (Northwestern University, priority 2014, dated 2017).

Assays:
[1] = test system: A3G-Luc; experiment: A3G-Luc luciferase screen in 293T cells stably expressing A3G-Luc; type: cell-based, human; details: 10 μM, 48 hrs, DMSO = 100%
Description: This background led to construction of cell lines to use in a search for compounds that might boost levels of A3s in the HIV target cells of the majority of HIV-infected persons who are non-controllers. The goal is to test a strategy of using such a booster in acute/early infection to prevent the hypothesized decrease of A3G and related A3s in an effort to increase “control” in persons lacking HLA B57/27-associated control. […] 293T and TZM-bl cells were maintained in DMEM (containing 4.5 g/liter glucose, L-glutamine, and sodium pyruvate) medium plus 10% fetal bovine serum, 50 IU/ml penicillin, and 50 μg/ml streptomycin at 37° C. and 5% CO2 throughout the experiments. […]. After collecting viral supernatant, 293T cells were infected with viral particles harboring the A3G-Luc expressing vector and selected with puromycin (0.75 μg/ml) for three days. Ten single cell clones of stable cells were isolated and tested for expression of A3G-Luc protein by both immunoblotting using antibody against A3G and measuring luciferase activity. Expressions in cell lines used for subsequent experiments are depicted in FIG. 2, upper panel. The A3G-Luc fusion protein was sensitive to Vif-mediated degradation (FIG. 3). Similar cells lines stably expressing A3F were constructed with the same methods (not shown).
To screen compounds that can boost A3G levels, 293T cells (25,000 cells per well in 96-well plate) stably expressing A3G-Luc protein or A3G-Luc/Vif proteins were plated. […] After 48 hrs of incubation with compounds culture medium was removed from each well and replaced with 100 μl of Britelite Plus luciferase assay substrate (PerkinElmer). Following 5 min. of incubation at room temperature, 75 μl of each cell lysate was transferred to a 96-well OptiPlate 96 (PerkinElmer) and luminescence was measured in a VICTOR X2 Multilabel Reader (PerkinElmer). Relative activity of compounds for their boosting capability A3G-Luc activity was calculated by plotting DMSO-treated A3G-Luc or A3G-Luc/Vif cells as 100%. Cellular cytotoxicity was measured by counting number of cells after 48 hrs of incubation with compounds compared to DMSO treated cells.

[2] = test system: A3G-Luc/Vif; experiment: A3G-Luc/Vif luciferase screen in 293T cells stably co-expressing A3G-Luc and HIV-1 Vif; type: cell-based, human; details: 10 μM, 48 hrs, DMSO = 100%
Method: FIG. 6. 293T cell clone #6 stably co-expressing A3G-Luciferase fusion protein together with HIV-1 Vif was used. Small molecule compounds were tested for their effects on stability of A3G and inhibition of Vif activity against A3G by measuring luciferase activity, relative to treatment with control DMSO only. The relative % luciferase activity was higher after treatment with NU compounds than DMSO.
[…]. After sorting, expression of both A3G-Luc and Vif was confirmed by immunoblotting using antibody against both A3G and Vif.
To screen compounds that can boost A3G levels, 293T cells (25,000 cells per well in 96-well plate) stably expressing A3G-Luc protein or A3G-Luc/Vif proteins were plated. After 24 hrs post plating culture medium was replaced with 100 μl of new medium containing either DMSO as a control or various compounds (10 μM concentration). After 48 hrs of incubation with compounds culture medium was removed from each well and replaced with 100 μl of Britelite Plus luciferase assay substrate (PerkinElmer). Following 5 min. of incubation at room temperature, 75 μl of each cell lysate was transferred to a 96-well OptiPlate 96 (PerkinElmer) and luminescence was measured in a VICTOR X2 Multilabel Reader (PerkinElmer). Relative activity of compounds for their boosting capability A3G-Luc activity was calculated by plotting DMSO-treated A3G-Luc or A3G-Luc/Vif cells as 100%. Cellular cytotoxicity was measured by counting number of cells after 48 hrs of incubation with compounds compared to DMSO treated cells.

[3] = test system: Wild-type HIV-1; experiment: A3G-mediated restriction of wild-type HIV-1; virus from 293T stably expressing A3G, TZM-bl readout; type: cell-based; details: Human immunodeficiency virus 1, HEK-293T, read-out: A3G-mediated Restriction by Compounds on Wild-type HIV-1 (% of HIV replication relative to DMSO treated Control)
Method: To test the effect of compounds shown to boost A3G-Luc levels in our screening systems on inhibition of wild-type HIV-1 replication by A3G or A3F, 293T cell lines stably expressing A3G or A3F were plated (750,000 cells per well in 6-well plate). At 24 hrs post plating, 1.5 μg of a wild-type (Vif-positive) HIV-1 proviral vector, NL4.3, was transfected into the 293T stable cell lines expressing either A3G or A3F. At 4 hrs post transfection, either DMSO as a control or an individual compound from series described below was added into the culture medium at a 10 μM concentration. At 1 day post transfection, supernatant fluids containing viral particles were filtered through […] filter to remove cellular debris. To test the effect of compound on HIV-1 replication, TZM-bl indicator cells were plated at a density of 10,000 cells/well in a 96 well culture plate 24 hrs prior to infection. TZM-bl indicator cells express luciferase gene under the control of HIV LTR promoter and are routinely used to measure HIV-1 replication capability. On the day of infection, the culture medium was removed and the cells inoculated with equal amount of HIV-1 particles in triplicate with 100 μl of viral supernatants in culture medium containing 20 μg/ml DEAE-dextran. After 24 hrs of incubation, culture medium was removed from each well and replaced with 100 μl of Britelite Plus luciferase assay substrate. Following 5 min. of incubation at room temperature, 75 μl of each cell lysate was transferred to a 96-well OptiPlate 96 and luminescence was measured in a VICTOR X2 Multilabel Reader as described above. Relative infectivity was calculated by plotting luciferase activity from viral particle from DMSO treated A3G or A3F cell lines as 100%. We only tested effect A3F- or A3G mediated restriction of HIV-1 replication by compounds boosting luciferase activity by more than 160% compared to DMSO control sample.

SMILES | A3G-Luc Activity (% of Relative Light Units compared to DMSO treated control) [1] [%] | Vif-A3G-Luc Activity (% of RLUs compared to DMSO treated control) [2] [%] | activity at 10 µM [3] [%]
COc1ccc(C(=O)Nc2ccc(Cl)c(Cl)c2)cc1NC(=O)C1CCCC1 [NU-455] | 188 | 131 | –
O=C(CCCCC1SC[C@@H]2NC(=O)N[C@H]12)NCCOCCOc1ccc(C(=O)Nc2ccc(Cl)c(Cl)c2)cc1NC(=O)CC1CC1 (some centres unmarked) [NU-128] | 141 | – | 62
COc1ccc(CNC(=O)c2ccc(OC)c(NC(=O)C(C)C)c2)cc1 [NU-568] | 96 | 87 | –
COc1ccc(C(=O)Nc2ccc3c(c2)OCO3)cc1NC(=O)C(C)C [NU-50] | 115 | 145 | –
COc1ccc(C(=O)Nc2ccc(Cl)c(Cl)c2)cc1NC(=O)c1ccc2c(c1)OCO2 [NU-303] | 90 | 71 | –
COc1ccc(C(=O)Nc2ccc(Cl)c(Cl)c2)cc1NC(=O)c1cccnc1 [NU-307] | 102 | 91 | –
COc1ccc(C(=O)Nc2ccc(Cl)c(Cl)c2)cc1NC(=O)N1CCCCC1 [NU-473] | 110 | 84 | –
COc1ccc(C(=O)Nc2ccc(F)c(F)c2)cc1NC(=O)C(C)C [NU-571] | 116 | 104 | –
COc1ccc(C(=O)Nc2ccc(Cl)c(Cl)c2)cc1NC(=O)C1CC1 [NU-304] | 124 | 138 | –
COc1ccc(C(=O)Nc2ccc(Cl)c(Cl)c2)cc1NC(=O)CC1CCCCC1 [NU-454] | 86 | 84 | –
COc1ccc(C(=O)NCc2ccc(F)cc2)cc1NC(=O)C(C)C [NU-567] | 93 | 76 | –
CCC(C)(C)C(=O)Nc1cc(C(=O)Nc2ccc(Cl)c(Cl)c2)ccc1OC [NU-457] | 120 | 93 | –
COc1ccc(C(=O)Nc2ccc(Cl)c(Cl)c2)cc1NC(=O)CC(C)(C)C [NU-474] | 105 | 71 | –
COc1ccc(C(=O)Nc2ccc(Cl)c(Cl)c2)cc1NS(=O)(=O)C1CC1 [NU-469] | 100 | 82 | –
COc1ccc(C(=O)NCc2ccccc2)cc1NC(=O)C(C)C [NU-566] | 106 | 80 | –
COc1ccc(C(=O)Nc2ccc(Cl)c(Cl)c2)cc1NC(=O)C1C2CC3CC(C2)CC1C3 (centres unmarked) [NU-459] | 106 | 69 | –
